Measurements reported in the supplement of paper PMC11451515.

Test system: NOMO1
Assay: cell viability relative to DMSO control; higher = less cytotoxic
Conditions: 48 h
Method in brief: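 Cells were incubated for 48 h at 37°C before CellTiter-Glo One luminescence was read. The cells were NOMO1 or SEM (500 cells/well) or P12-Ichikawa (1000 cells/well) leukemia cells, adapted for at least four passages in each medium and seeded in 1536-well plates (5 μl). Dosing used library compounds in DMSO applied by pin over 11 threefold points, 47 μM to 0.79 nM. Viability is the per-plate percentage of DMSO wells, with cell-free wells as background.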

[1] = HPLM + 10% dialyzed FBS, 0.000781 µM
[2] = HPLM + 10% dialyzed FBS, 0.00234 µM
[3] = HPLM + 10% dialyzed FBS, 0.00702 µM
[4] = HPLM + 10% dialyzed FBS, 0.0211 µM
[5] = HPLM + 10% dialyzed FBS, 0.0632 µM
[6] = HPLM + 10% dialyzed FBS, 0.19 µM
[7] = HPLM + 10% dialyzed FBS, 0.569 µM
[8] = HPLM + 10% dialyzed FBS, 1.71 µM
[9] = HPLM + 10% dialyzed FBS, 5.12 µM
[10] = HPLM + 10% dialyzed FBS, 15.4 µM
[11] = HPLM + 10% dialyzed FBS, 46.1 µM
[12] = RPMI 5 mM glucose + 10% FBS, 0.000781 µM
[13] = RPMI 5 mM glucose + 10% FBS, 0.00234 µM
[14] = RPMI 5 mM glucose + 10% FBS, 0.00702 µM
[15] = RPMI 5 mM glucose + 10% FBS, 0.0211 µM
[16] = RPMI 5 mM glucose + 10% FBS, 0.0632 µM
[17] = RPMI 5 mM glucose + 10% FBS, 0.19 µM
[18] = RPMI 5 mM glucose + 10% FBS, 0.569 µM
[19] = RPMI 5 mM glucose + 10% FBS, 1.71 µM
[20] = RPMI 5 mM glucose + 10% FBS, 5.12 µM
[21] = RPMI 5 mM glucose + 10% FBS, 15.4 µM
[22] = RPMI 5 mM glucose + 10% FBS, 46.1 µM
[23] = RPMI 5 mM glucose + 10% dialyzed FBS, 0.000781 µM
[24] = RPMI 5 mM glucose + 10% dialyzed FBS, 0.00234 µM
[25] = RPMI 5 mM glucose + 10% dialyzed FBS, 0.00702 µM
[26] = RPMI 5 mM glucose + 10% dialyzed FBS, 0.0211 µM
[27] = RPMI 5 mM glucose + 10% dialyzed FBS, 0.0632 µM
[28] = RPMI 5 mM glucose + 10% dialyzed FBS, 0.19 µM
[29] = RPMI 5 mM glucose + 10% dialyzed FBS, 0.569 µM
[30] = RPMI 5 mM glucose + 10% dialyzed FBS, 1.71 µM
[31] = RPMI 5 mM glucose + 10% dialyzed FBS, 5.12 µM
[32] = RPMI 5 mM glucose + 10% dialyzed FBS, 15.4 µM
[33] = RPMI 5 mM glucose + 10% dialyzed FBS, 46.1 µM

| SMILES | cell viability [1] [%] | cell viability [2] [%] | cell viability [3] [%] | cell viability [4] [%] | cell viability [5] [%] | cell viability [6] [%] | cell viability [7] [%] | cell viability [8] [%] | cell viability [9] [%] | cell viability [10] [%] | cell viability [11] [%] | cell viability [12] [%] | cell viability [13] [%] | cell viability [14] [%] | cell viability [15] [%] | cell viability [16] [%] | cell viability [17] [%] | cell viability [18] [%] | cell viability [19] [%] | cell viability [20] [%] | cell viability [21] [%] | cell viability [22] [%] | cell viability [23] [%] | cell viability [24] [%] | cell viability [25] [%] | cell viability [26] [%] | cell viability [27] [%] | cell viability [28] [%] | cell viability [29] [%] | cell viability [30] [%] | cell viability [31] [%] | cell viability [32] [%] | cell viability [33] [%] |
| --- | --- | --- | --- | --- | --- | --- | --- | --- | --- | --- | --- | --- | --- | --- | --- | --- | --- | --- | --- | --- | --- | --- | --- | --- | --- | --- | --- | --- | --- | --- | --- | --- | --- |
| Cc1nc(-c2ccc(OCC(C)C)c(C#N)c2)sc1C(=O)O | 104 | 123 | 127 | 128 | 142 | 126 | 153 | 137 | 140 | 118 | 138 | 111 | 128 | 119 | 121 | 137 | 129 | 138 | 137 | 117 | 131 | 118 | 120 | 123 | 120 | 116 | 132 | 131 | 122 | 125 | 125 | 125 | 129 |
| C[C@]12CC[C@H]3[C@@H](CC(=C)\C4=C\C(=O)\C=C/[C@]34C)[C@@H]1CCC2=O | 111 | 105 | 92.2 | 107 | 105 | 99.1 | 99.1 | 113 | 119 | 99.6 | 52.8 | 99.5 | 89.3 | 95.8 | 90.4 | 92.6 | 92.1 | 97.8 | 90.6 | 81.6 | 80.3 | 74.9 | 75.8 | 100 | 99.7 | 108 | 98.3 | 91.6 | 94.4 | 102 | 92.5 | 86.4 | 61.8 |
| NC1=NC(=O)N2CC12 (stereo unspecified) | 82 | 94.5 | 104 | 102 | 107 | 99.3 | 104 | 73.9 | 43.5 | 4.8 | 4.55 | 87.7 | 94.5 | 94.2 | 87.8 | 92.2 | 90.1 | 85.3 | 82.7 | 56.2 | 4.92 | 4.24 | 88.3 | 76.1 | 87.8 | 93.4 | 104 | 101 | 106 | 64.7 | 55.9 | 3.18 | 4.25 |
| C/C1=C2/[N]3[Co+]456([OH])<-[N]7=C1[C@@H](CCC(N)=O)C(C)(C)/C7=C/C1=[N]->4C(=C(/C)C4=[N]->5[C@@](C)([C@H]3[C@H](CC(N)=O)[C@@]2(C)CCC(=O)NC[C@@H](C)OP(=O)([O-])O[C@H]2[C@@H](O)[C@@H](n3c[n]->6c5cc(C)c(C)cc53)O[C@@H]2CO)[C@@](C)(CC(N)=O)[C@@H]4CCC(N)=O)/[C@@](C)(CC(N)=O)[C@@H]1CCC(N)=O | 94.9 | 110 | 102 | 103 | 113 | 105 | 100 | 77.2 | 87.9 | 80.4 | 70.6 | 95.1 | 95 | 87.9 | 95.4 | 90.5 | 90.3 | 97.3 | 82.2 | 81.4 | 89 | 75.5 | 95.6 | 95.8 | 101 | 94.6 | 90.7 | 97.7 | 97.5 | 91.8 | 86.1 | 89.9 | 72.7 |
| C[C@H](NC(=O)Cc1cc(F)cc(F)c1)C(=O)N[C@H](C(=O)OC(C)(C)C)c1ccccc1 | 98.4 | 110 | 98.2 | 101 | 111 | 91.2 | 101 | 73.8 | 91.6 | 91.3 | 80.3 | 88.9 | 84.9 | 92.2 | 80.8 | 92 | 87.4 | 76.1 | 79.3 | 76.4 | 81.9 | 75.4 | 95.3 | 85.3 | 94 | 85.2 | 101 | 92.9 | 91.4 | 92.7 | 92.6 | 79.5 | 82.8 |
| CCNC(=O)Nc1ccc(Oc2ncnc(N)c2/C=N/OC)cc1Cl | 104 | 113 | 111 | 115 | 109 | 113 | 133 | 125 | 127 | 105 | 111 | 112 | 118 | 114 | 115 | 119 | 113 | 113 | 121 | 118 | 124 | 122 | 90.2 | 113 | 98.1 | 101 | 114 | 109 | 117 | 112 | 103 | 109 | 125 |
| OC1=CC=C(C=C1)C/2=C/C3=C(OC2)C=C(O)C=C3 | 118 | 123 | 114 | 111 | 118 | 111 | 100 | 82.8 | 60.9 | 26.3 | 5.22 | 97.2 | 108 | 117 | 99.8 | 108 | 108 | 104 | 93.3 | 89.4 | 23.9 | 9.27 | 108 | 118 | 110 | 109 | 101 | 105 | 111 | 106 | 96.8 | 33.1 | 14.9 |
